Laboratory results from BindingDB's records for doi:10.7270/Q2J101NV (Burnham Center For Chemical Genomics, 2010).

What follows are molecules tested against T1, Alkaline phosphatase, tissue-nonspecific isozyme (Homo sapiens, UniProt P05186) (assay: activation of tissue-nonspecific alkaline phosphatase – biochemical, TNAP isozyme, mouse IAP uHTS hits, selectivity assay for mouse IAP activator project, dose response (AID 488880)).
T1 sequence (P05186 whole entry): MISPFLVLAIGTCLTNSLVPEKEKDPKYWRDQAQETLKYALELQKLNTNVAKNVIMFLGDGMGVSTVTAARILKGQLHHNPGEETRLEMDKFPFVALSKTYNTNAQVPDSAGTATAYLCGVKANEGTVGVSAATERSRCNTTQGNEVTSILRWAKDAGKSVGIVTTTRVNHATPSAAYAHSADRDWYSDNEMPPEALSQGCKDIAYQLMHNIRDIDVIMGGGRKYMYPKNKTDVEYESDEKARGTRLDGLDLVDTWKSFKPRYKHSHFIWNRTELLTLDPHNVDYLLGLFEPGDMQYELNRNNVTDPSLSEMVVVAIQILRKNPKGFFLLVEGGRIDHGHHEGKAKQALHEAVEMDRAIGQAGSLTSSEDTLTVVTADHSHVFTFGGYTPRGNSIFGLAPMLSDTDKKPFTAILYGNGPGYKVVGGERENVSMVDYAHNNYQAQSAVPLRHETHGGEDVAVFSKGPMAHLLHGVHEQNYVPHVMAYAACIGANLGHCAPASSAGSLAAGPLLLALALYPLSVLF

EC50 [µM]	SMILES
79.4	O=C(NN=CC1=CC(=O)C(=O)CC1)NN=CC1=CC(=O)C(=O)CC1 [1,3-bis[[(Z)-(3-hydroxy-4-oxocyclohexa-2,5-dien-1-ylidene)methyl]amino]urea]
19.7	CN(CCO)c1ccc(CN=Nc2ccc([N+](=O)[O-])cc2S(=O)(=O)Nc2ccccc2C(=O)O)cc1
> 100	O=C1CC(=O)c2c(O)cc(O)c(O)c2C1=O [4,5,7,8-tetrahydroxy-1,2-naphthoquinone]
> 100	C#CCOCCOCCOCCNc1nc(N2CCN(C(=O)CCCCCCCCCCNC(=O)[C@@H](CCC(=O)O)n3cc(CCCCCN)nn3)CC2)nc(N2CCN(C(=O)CCCCCCCCCCNC(=O)[C@H]([C@@H](C)CC)n3cc(CCCCCN)nn3)CC2)n1 [KI-KE]
56.1	Cc1cc(=O)[nH]c(N=NCc2ccc(O)c(O)c2)n1 [MLS001194906]
